Measurements reported in patent publication US20150335670A1, “Medical applications of Notoginsenoside Fc” (SHANGHAI UNIVERSITY OF TRADITIONAL CHINESE MEDICINE, priority 2013, published 2015).
“And” between values parts separate entries of the source, which are not always exact repeats. Identical values can stand only once.

Assays:
[1] = test system: acute myocardial infarction in rats; test: Acute myocardial infarction in rats (coronary ligation, TTC staining, pathohistology); type: in vivo, rat; details: for myocardial infarction area (ischemic area %): individual animals
Method: Model preparing method: 30 SD rats (Shanghai University of Traditional Chinese Medicine Experimental Animal Center), weight: 320-370 g; rat was treated with anesthesia with pentobarbital (35 mg/kg), supine fixing; neck midline incision, separating trachea, tracheotomy, inserting a breathing tube, adjusting a frequency and tidal volume of a ventilator; median sternotomy thoracotomy (3-4 intercostal), using thin surgical needle and line six for starting at a left atrial appendage, and ligation at pulmonary cone. Successful standard thereof was that: observing with naked eyes (anterior descending artery blood supply area was darken or pale). Chest was quickly closed. For the sham group, the line passed the left anterior descending coronary artery bypass without ligation.
TTC staining: rat hearts were frozen at −20° C., and were taken out after being hard; the rat hearts were left-coronally excised into 5-6 pieces at a thickness of 3-4 mm. Then the rat hearts were placed in 0.5% TTC solution, and incubated at 37° C. for 15 min. The pieces were taken out and fixed in 4% formaldehyde solution.
The hearts were cut according to two different colors and drained water with filter paper before weighing. Calculation formula was as follows: ischemic area (%)=[…]×100%. Meanwhile, the hearts were partly acquired for pathological analysis.
Control group: six rats, administered with 0.9% physiological saline (NS) after surgery.
Sham operation group: six rats, opening chest and passing line without ligation.
Positive medicine group: six rats, administered with ticagrelor (4.1 mg/kg) after surgery.
4 mg/kg Fc treatment group: six rats, administered with Fc (4 mg/kg) after surgery.
12 mg/kg Fc treatment group: six rats, administered with Fc (12 mg/kg) after surgery.

platelet = test: In vitro platelet aggregation assay (ADP-induced, nephelometry); type: cell-based, rat
Method: 2.1.1 In vitro platelet aggregation assay: blood samples were placed in a centrifuge tube pre-coated with sodium citrate and centrifuged at 100 g for 5 min. The supernatant was collected and designated as rich platelet (PRP). After addition of prostacyclin (2 μg/ml), PRP was centrifuged at 700 g for 5 min and washed twice with 0.9% saline. The washed platelets were re-suspended in Tyrode buffer and diluted at a density of 4×10^8 cells/ml for further utilization. Platelet aggregation assay was provided according to a nephelometry method: platelet plasma was placed in cuvette; after addition of a inducing agent (ADP: 5-adenosine diphosphate disodium salt: 1×10^−4 mol/L), the platelet plasma was stirred with magnetic particles, wherein platelet was gradually aggregated, plasma turbidity was reduced, and transmittance was increased. Changes were recorded for drawing a dynamic curve of platelet aggregation. Aggregation rate and transmittance for PRP were regarded as 0; aggregation rate and transmittance of suspension were regarded as 100%. A platelet aggregation instrument was used for automatic measurement, recording, and drawing the platelet aggregation curve. For judging inhibiting or promoting of aggregation, it was mainly depending on whether synergy or antagonism happened with the inducing agent; wherein synergy was to promote platelet aggregation, antagonism was to inhibit platelet aggregation.
Blank control group: 0.9% physiological saline (NS).
Model group: adenosine diphosphate (ADP) (10 mM).
Positive control group: clopidogrel (5 mM).
Treatment groups: six rats for each group, Fc dissolved in double distilled water (prepared with different concentrations).

standard human plasma = test: Four indexes of blood coagulation (APTT, PT), human; type: biochemical; details: 80 μg/ml
From the text: Notoginsenoside Fc (molecular weight 1211.38, HPLC purity≧99%, from Institute of Chinese Materia Medica), clopidogrel (molecular weight 419.90, HPLC purity≧98%, from National Institutes for Drug Control), standard human plasma, reagents for measurement of four indexes of blood coagulation (from Siemens, Germany), and adenosine diphosphate (ADP) (from Sigma, USA).
2.1.3.2 Four indexes of blood coagulation: i) Prothrombin time (PT) mainly reflects extrinsic coagulation conditions. Its value is increased when the levels of coagulation factor IX and XI in plasma are reduced, which usually occurs in hemophilia, hemophilia B and factor XI deficiency patients. Conversely, the reduction of it is seen in hypercoagulable state, when the procoagulant substances get into blood and the activity of coagulation factors is increased. ii) Activated partial thromboplastin time (APTT) reflects mainly intrinsic coagulation conditions. Its value is changed under the similar condition as PT. iii) Thrombin time (TT) mainly reflects the abnormality in the conversion of fibrinogen into fibrin. Its value is elevated in DIC hyperfibrinolysis period, afibrinogenemia and hemoglobin hyperlipidemia, and when degradation products (FDPs) of blood fibrin are increased. iv) Fibrinogen (Fibrinogen, FIB) mainly reflects the content of fibrinogen in plasma. […]

rat tail bleeding = test: Bleeding time assay (rat tail transection); type: in vivo; details: rats; vs control
From the text: 2.1.3.1 Bleeding time assay: rat tail was transected 0.5 cm from the tip to induce bleeding. And the bleeding time was defined as the time from the start of transection to bleeding cessation. The time at which the flow of blood ceased for 30 s was considered as bleeding cessation.

platelet thrombus = test: Whole animal thrombogenesis assay (extracorporeal circulation model, thrombus weight); type: in vivo, rat; details: rats, 8.1 mg/kg intravenous, extracorporeal circulation started 5 min later, 15 min, blank control 37.2 mg
From the text: 2.1.2 Whole animal thrombogenesis assay: when arterial blood platelets contact a rough surface of a wire, the platelets are adhered to the wire and form platelet thrombus on a surface thereof. When platelet adhesion and aggregation function is suppressed, thrombus is light. Therefore, thrombus weight can measure platelet adhesion and aggregation functions.
Referring to FIG. 3, effect of the notoginsenoside Fc on the platelet aggregation function is illustrated. […] In the extracorporeal circulation model, the rats were intravenous administered with Fc at dose of 8.1 mg/kg. Five minutes later, the extracorporeal circulation was initiated and stopped after fifteen minutes. The thrombus formed on the thread was weighed. Significant difference was found between the blank control group and the Fc treatment group (**P<0.01).

rat plasma = test: Blood coagulation index APTT in rat plasma; type: biochemical
From the text: 2.1.3.2 Four indexes of blood coagulation: i) Prothrombin time (PT) mainly reflects extrinsic coagulation conditions. Its value is increased when the levels of coagulation factor IX and XI in plasma are reduced, which usually occurs in hemophilia, hemophilia B and factor XI deficiency patients. Conversely, the reduction of it is seen in hypercoagulable state, when the procoagulant substances get into blood and the activity of coagulation factors is increased. ii) Activated partial thromboplastin time (APTT) reflects mainly intrinsic coagulation conditions. Its value is changed under the similar condition as PT. iii) Thrombin time (TT) mainly reflects the abnormality in the conversion of fibrinogen into fibrin. Its value is elevated in DIC hyperfibrinolysis period, afibrinogenemia and hemoglobin hyperlipidemia, and when degradation products (FDPs) of blood fibrin are increased. iv) Fibrinogen (Fibrinogen, FIB) mainly reflects the content of fibrinogen in plasma. Generally, its concentration is elevated in acute myocardial infarction. The reduction of it is observed in DIC dissolution of low consumption of coagulation, primary fibrinolysis, severe hepatitis, hepatic cirrhosis.

CCCSc1nc(N[C@@H]2C[C@H]2c2ccc(F)c(F)c2)c2nnn([C@@H]3C[C@H](OCCO)[C@@H](O)[C@H]3O)c2n1 [ticagrelor, reference compound]
myocardial infarction area (ischemic area %) ([1]; ticagrelor 4.1 mg/kg after surgery): 15.15% and 17% and 13.85% and 14.24% and 16.69% and 16.94% | pathohistology of myocardium ([1]; ticagrelor 4.1 mg/kg, FIG. 11): arrangement of myocardial cells was disordered in local area

CC(C)=CCC[C@](C)(O[C@@H]1O[C@H](CO[C@@H]2OC[C@@H](O)[C@H](O)[C@H]2O)[C@@H](O)[C@H](O)[C@H]1O)[C@H]1CC[C@]2(C)[C@@H]1[C@H](O)C[C@@H]1[C@@]3(C)CC[C@H](O[C@@H]4O[C@H](CO)[C@@H](O)[C@H](O)[C@H]4O[C@@H]4O[C@H](CO)[C@@H](O)[C@H](O)[C@H]4O[C@@H]4OC[C@@H](O)[C@H](O)[C@H]4O)C(C)(C)[C@@H]3CC[C@]12C [Notoginsenoside Fc, notoginsenoside Fc]
IC50 (platelet; ADP-induced, 0.1-40 μM, read-out: IC50 (inhibition of platelet aggregation)): 13.5 µM | platelet aggregation rate (platelet; ADP-induced, Fc 200 μM): 25.8% | aggregation rate (%) (platelet; ADP-induced, dose 0.1 μM, listed as Fc): 47.9% | aggregation rate (%) (platelet; ADP-induced, dose 0.1 μM, listed as notoginsenoside Fc): 47.98% | aggregation rate (%) (platelet; ADP-induced, dose 10 μM): 42.83% | aggregation rate (%) (platelet; ADP-induced, dose 20 μM): 32.33% | aggregation rate (%) (platelet; ADP-induced, dose 30 μM): 31.60% | aggregation rate (%) (platelet; ADP-induced, dose 40 μM, listed as Fc): 28.1% | aggregation rate (%) (platelet; ADP-induced, dose 40 μM, listed as notoginsenoside Fc): 28.13% | decreasing amplitude of platelet aggregation rate (platelet; from 0.1 μM to 40 μM): up to 19.8% | myocardial infarction area (ischemic area %) ([1]; Fc 4 mg/kg after surgery): 17.27% and 22.31% and 22.8% and 19.05% and 19.74% and 16.88% | pathohistology of myocardium ([1]; Fc 4 mg/kg, FIG. 12): arrangement of most of the myocardial cells was normal | myocardial infarction area (ischemic area %) ([1]; Fc 12 mg/kg after surgery): reduced more myocardial infarction than the positive medicine group and 5.843% and 3.482% and 5.463% and 4.892% and 5.19% and 4.595% | pathohistology of myocardium ([1]; Fc 12 mg/kg, FIG. 13): arrangement of the myocardial cells was almost normal | percentage of the infarcted area ([1]; Fc 4 and 12 mg/kg, FIG. 8, vs control): significantly reduced | APTT (standard human plasma; blank control 91 s): 126 s | PT (standard human plasma; vs blank control): longer | rat tail bleeding time (rat tail bleeding): significantly prolonged | weight of thrombus (wet weight) (platelet thrombus; listed as FC): 28.2 mg | weight of thrombus (wet weight) (platelet thrombus; listed as Fc): actively reduce thrombogenesis | APTT Time (rat plasma; 5 μg/ml): 19.20 s | APTT Time (rat plasma; 5 μg/ml, listed as Fc): 19 s | APTT Time (rat plasma; 10 μg/ml): 20.31 s | APTT Time (rat plasma; 20 μg/ml): 21.61 s | APTT Time (rat plasma; 80 μg/ml): 28.25 s | APTT Time (rat plasma; 160 μg/ml): 32.65 s | APTT Time (rat plasma; 160 μg/ml, listed as Fc): 32 s | difference in APTT (rat plasma; from 5 μg/ml to 160 μg/ml): 13 s
